Where a name gives a salt, the structure may show the parent alone. Read-outs that look alike come from different tables or passages of the source.
Assays:
[1] = design: method as in Investigator’s Brochure (IB); conditions: single oral dose, ferrets; ref Investigator’s Brochure (IB); cited from earlier work
CYP2C9 = system: CYP2C9; design: method as in Investigator’s Brochure (IB); conditions: in vitro; ref Investigator’s Brochure (IB); cited from earlier work
ER α-glucosidase enzymes = system: ER α-glucosidase enzymes; design: method as in PMID 32227946; conditions: single dose of UV-4; cited from earlier work
[2] = Cardiovascular assessment in dogs, single dose GLP study (UV4-COV-0023); format: in vivo; conditions: dog, 50 mg/kg
Description: dependent from lowest to highest partitioning in mouse, rat, human, and dog. Mean blood cell partitioning ranged from 29.7% to 37.2% in mouse, 32.1% to 35.1% in rat, 32.7% to 53.3% in human, and 58.6% to 63.8% in dog. […]
hepatocytes. Metabolism was minimal and appears to involve O-demethylation, oxidation, and direct glucuronidation of UV-4. Three metabolites were tentatively identified in mouse and dog hepatocytes, whereas only the O-demethylation and oxidation metabolites, but not the direct glucuronidation product of UV-4, were found in human hepatocytes.
Following a single oral dose, UV-4 appears to be rapidly excreted with t1/2 values ranging from 2 hours in ferrets, 3 to 5 hours in mice and rats, and 4 to 9 hours in dogs. In rats, urinary excretion of UV-4 after an oral dose of UV-4B was rapid, with the highest percent dose excreted in the initial 0 to 4 hour period after dosing. […]
Based on the dog NOAEL [10 mg/kg/dose TID] and the appropriate conversion recommended in the FDA guidance (e.g., 60 kg body weight for humans), the HED for the NOAEL of UV-4B in dog is 333 mg TID. Considering that the lowest dose tested in dogs (2 mg/kg TID or expressed as HED, 67 mg TID) was associated with decreases in PLT count (mild), increases in aPTT (very mild), increases in AST (up to 3x BL), and histopathological changes, a 100-fold safety factor was applied to the NOAEL. […]

[3] = Reproductive toxicity upper limit study in rats, 12 days; format: in vivo, rat; conditions: 50 mg/kg/day
Experimental: 7. Reproductive toxicity:
UV-4B has been evaluated for developmental and reproductive toxicity in fertility and early embryonic development in rats, embryo-fetal development in rats and rabbits, and pre- and postnatal development in rats. In male and female rats given UV-4B at 8, 20, and 50 mg/kg/day before mating and continuing through Gestation Day 13, a […]
observed at 50 mg/kg/day. […]
count but following a 21-week treatment-free period there was complete recovery in pregnancy and fertility indices However, decrease in testicular weight, sperm motility […]
identify the upper limit of reproductive toxicity, a dose of 50 mg/kg/day for 12 […]
In a study designed to identify the upper limit of reproductive toxicity, a dose of 50 […]
rabbit offspring. The rat and rabbit doses are equivalent to 486 and 966 mg/day, […]
In summary, findings that have been identified in the UV-4B toxicology studies so far include effects on the GI tract (including ulcers/erosions), lymphocytes and lymphoid tissue, reduction in PLT count, and increases in transaminases (AST>ALT). Findings were generally consistent across mouse, dog, and rat, apart from the isolated finding of swollen paws/legs and perioral appearance and red skin which was seen only in the rat. […]

[4] = mouse, cited from earlier work
[5] = dog; cited from earlier work

SMILES: COCCCCCCCCCN1C[C@H](O)[C@@H](O)[C@H](O)[C@H]1CO [UV-4, N-(9’-methoxynonyl)-1-deoxynojirimycin]
- t1/2 [1]: 2 h
- Direct inhibition of CYP2C9 (CYP2C9): No clinically relevant direct inhibition
- Duration of pharmacodynamic effect on the target ER α-glucosidase enzymes (ER α-glucosidase enzymes): at least 72 hours

SMILES: COCCCCCCCCCN1C[C@H](O)[C@@H](O)[C@H](O)[C@H]1CO [UV-4B, N-(9’-methoxynonyl)-1-deoxynojirimycin hydrochloride]
- Multiple of predicted minimum clinically efficacious dose at which arterial pulse pressure decreased [2]: approximately 30 fold
- Human equivalent of the rat dose [3]: 486 mg/day
- Dose with lymphoid depletion in thymus ([4]; F): ≥ 25 mg/kg/dose, TID
- Dose with lymphoid depletion in thymus ([4]; M): 100 mg/kg/dose, TID
- Dose with neutrophilic infiltration and erosion/ulcer in rectum ([4]; females (printed F100))): 100 mg/kg/dose, TID
- Neurologic Effects ([4]; functional observational battery): no effect in FOB
- Dose with decrease in thymus weight ([4]; printed (men)): ≥ 25 mg/kg/dose, TID
- Dose with increased AST ([4]; printed (men)): ≥ 600 mg/kg/dose, TID
- Dose with decrease in thymus weight ([4]; women [sic]): 100 mg/kg/dose, TID
- Dose with increased AST ([4]; women [sic]): 600 mg/kg/dose, TID
- Cardiovascular Effects [4]: none observed
- Dose with decrease in red cell mass, RBC count, HGB, and HCT [4]: 100 mg/kg/dose, TID
- Dose with fecal abnormalities [4]: > 250 mg/kg/dose, TID
- Dose with decreased PLTs [5]: 2 mg/kg/dose, TID
- Dose with decreased arterial pulse pressure [5]: > 50 mg/kg
- Dose with decreased reticulocytes [5]: 10 mg/kg/dose, TID
- Dose with decreased systolic pressure [5]: > 50 mg/kg
- Dose with decreased thymus weight [5]: ≥ 2 mg/kg/dose, TID
- Dose with increased ALT [5]: ≥ 2 mg/kg/dose, TID
- Dose with increased AST [5]: ≥ 2 mg/kg/dose, TID
- Dose with increased aPTT [5]: ≥ 10 mg/kg/dose, TID
- Dose with increased diastolic pressure [5]: > 50 mg/kg
- Dose with inverted AST/ALT ratio [5]: 10 mg/kg/dose, TID
- Dose with lymphocyte depletion in thymus, spleen, lymph nodes, and GALT [5]: ≥ 2 mg/kg/dose, TID
- Dose with nonformed feces [5]: ≥ 10 mg/kg/dose, TID
- Dose with salivation and vomitus [5]: 60 mg/kg/dose, TID
- Neurologic Effects [5]: none observed

— article PMC9387934, “Randomized single oral dose phase 1 study of safety, tolerability, and pharmacokinetics of Iminosugar UV-4 Hydrochloride (UV-4B) in healthy subjects” (PLoS Neglected Tropical Diseases, 2022)
